Results taken from PMC12655351, “Synthesis and Anticancer Activity Evaluation of New 5-((5-Nitrofuran-2-yl)allylidene)-2-thioxo-4-thiazolidinones” (Pharmaceuticals, 2025).

What was measured:
BT-549 = conditions: for TGI: BT-549, 48 h
UACC-257 [1] = assay: cells; conditions: Homo sapiens, UACC-257, 48 h; for CC50: read-out: LC50, UACC-257, 48 h
ACHN = assay: NCI-60 SRB screen; conditions: 48 h; for GI50 / CC50: Homo sapiens; for CC50: read-out: LC50, ACHN, 48 h
NCI-H460 = assay: NCI-60 SRB screen; conditions: NCI-H460, 48 h; for GI50 / CC50: Homo sapiens; for CC50: read-out: LC50
MDA-MB-435 [2] = assay: cells; conditions: Homo sapiens, MDA-MB-435, 48 h; for CC50: read-out: LC50, MDA-MB-435, 48 h
A498 = assay: cells; conditions: Homo sapiens, A498, 48 h
HT29 [3] = assay: cells; conditions: Homo sapiens, HT-29, 48 h; for GI50: HT29, 48 h; for CC50: read-out: LC50, HT29, 48 h
HCT-116 = assay: cells; conditions: Homo sapiens, HCT-116, 48 h
SN12C = conditions: SN12C, 48 h
Renal Cancer = Renal Cancer subpanel
PC-3 = conditions: PC-3, 48 h
CAKI-1 = conditions: for TGI: CAKI-1, 48 h
NCI-H322M = assay: NCI-60 SRB screen; conditions: 48 h; for GI50 / CC50: Homo sapiens; for CC50: read-out: LC50, NCI-H322M, 48 h
UACC-257 [4] = conditions: UACC-257, 48 h
HT29 [5] = conditions: HT29, 48 h
UO-31 = conditions: UO-31, 48 h
[6] = tested on: Non-small cell lung cancer; conditions: Non-small cell lung cancer subpanel
OVCAR-8 = assay: cells; conditions: Homo sapiens, OVCAR-8, 48 h; for CC50: read-out: LC50, OVCAR-8, 48 h
HS 578T = assay: cells; conditions: Homo sapiens, 48 h; for GI50: HS 578T; for CC50: read-out: LC50
MALME-3M = assay: NCI-60 SRB screen; conditions: 48 h; for GI50 / CC50: Homo sapiens, Malme-3M; for CC50: read-out: LC50, MALME-3M, 48 h; for TGI: MALME-3M
Breast cancer = Breast cancer subpanel
SK-MEL-5 [7] = conditions: for growth GP: SK-MEL-5, 10 μM, 48 h; for TGI: SK-MEL-5, 48 h
SF-268 = assay: cells; conditions: Homo sapiens, SF-268, 48 h; for CC50: read-out: LC50, SF-268, 48 h
LOX IMVI = conditions: LOX IMVI, 48 h
MDA-MB-435 [8] = conditions: MDA-MB-435, 48 h
[9] = tested on: panel of 60 cancer cell lines; assay: cells; conditions: Homo sapiens, read-out: MG_MID GI50
M14 = assay: NCI-60 SRB screen; conditions: M14, 48 h; for GI50 / CC50: Homo sapiens; for CC50: read-out: LC50, M14, 48 h
HCT-15 = assay: NCI-60 SRB screen; conditions: HCT-15, 48 h; for GI50 / CC50: Homo sapiens; for CC50: read-out: LC50, HCT-15, 48 h
SK-MEL-5 [10] = assay: cells; conditions: Homo sapiens, SK-MEL-5, 48 h; for CC50: read-out: LC50, SK-MEL-5, 48 h
Prostate Cancer = assay: cells; conditions: Homo sapiens, read-out: MG_MID GI50

CCCCC(C(=O)O)N1C(=O)/C(=C/C=C/c2ccc([N+](=O)[O-])o2)SC1=S (stereo not shown) [6b, 2-((Z)-5-((E)-3-(5-nitrofuran-2-yl)allylidene)-4-oxo-2-thioxothiazolidin-3-yl)hexanoic acid]
TGI (BT-549): 3.12 µM
GI50 (UACC-257 [1]): 1.93 µM
CC50 (UACC-257 [1]): 9.62 µM
TGI (ACHN): 3.48 µM
GI50 (ACHN): 1.88 µM
CC50 (ACHN): 6.47 µM
GI50 (NCI-H460): 1.84 µM
CC50 (NCI-H460): 69.6 µM
TGI (NCI-H460): 3.61 µM
GI50 (MDA-MB-435 [2]): 1.81 µM
CC50 (MDA-MB-435 [2]): 6.61 µM
GI50 (A498): 3.03 µM
GI50 (HT29 [3]): 1.98 µM
CC50 (HT29 [3]): 6.95 µM
GI50 (HCT-116): 1.73 µM
TGI (SN12C): 4.00 µM
MG_MID TGI (Renal Cancer): 5.37 µM
TGI (PC-3): 11.3 µM
TGI (CAKI-1): 3.29 µM
TGI (NCI-H322M): 15.0 µM
GI50 (NCI-H322M): 3.84 µM
CC50 (NCI-H322M): 43.9 µM
TGI (UACC-257 [4]): 4.31 µM
TGI (HT29 [5]): 3.71 µM
TGI (UO-31): 3.29 µM
MG_MID TGI [6]: 6.45 µM
GI50 (OVCAR-8): 2.12 µM
CC50 (OVCAR-8): 13.8 µM
GI50 (HS 578T): 3.38 µM
CC50 (HS 578T): > 100 µM
GI50 (MALME-3M): 2.21 µM
CC50 (MALME-3M): 9.02 µM
TGI (MALME-3M): 4.47 µM
MG_MID TGI (Breast cancer): 7.71 µM
growth GP (SK-MEL-5 [7]): -99.30%
TGI (SK-MEL-5 [7]): 2.77 µM
GI50 (SF-268): 2.15 µM
CC50 (SF-268): 16.8 µM
TGI (LOX IMVI): 3.34 µM
TGI (MDA-MB-435 [8]): 3.95 µM
GI50 [9]: 2.3 µM
GI50 (M14): 1.83 µM
CC50 (M14): 7.66 µM
TGI (M14): 3.75 µM
TGI (HCT-15): 3.58 µM
GI50 (HCT-15): 1.71 µM
CC50 (HCT-15): 7.47 µM
GI50 (SK-MEL-5 [10]): 1.45 µM
CC50 (SK-MEL-5 [10]): 5.29 µM
GI50 (Prostate Cancer): 3.29 µM

CC(C)C(C(=O)O)N1C(=O)/C(=C/C=C/c2ccc([N+](=O)[O-])o2)SC1=S (stereo not shown) [5b, 3-Methyl-2-((Z)-5-((E)-3-(5-nitrofuran-2-yl)allylidene)-4-oxo-2-thioxothiazolidin-3-yl)butanoic acid]
growth GP (BT-549; BT-549, 10 μM, 48 h): -98.16%
TGI (BT-549): 2.14 µM
GI50 (UACC-257 [1]): 1.57 µM
CC50 (UACC-257 [1]): 6.8 µM
growth GP (ACHN; 10 μM): -99.54%
TGI (ACHN): 2.64 µM
GI50 (ACHN): 1.35 µM
CC50 (ACHN): 5.19 µM
GI50 (NCI-H460): 1.76 µM
CC50 (NCI-H460): 34.5 µM
TGI (NCI-H460): 4.93 µM
GI50 (MDA-MB-435 [2]): 0.85 µM
CC50 (MDA-MB-435 [2]): 5.01 µM
GI50 (A498): 2.69 µM
GI50 (HT29 [3]): 1.37 µM
CC50 (HT29 [3]): 6.14 µM
GI50 (HCT-116): 0.32 µM
TGI (SN12C): 2.15 µM
MG_MID TGI (Renal Cancer): 3.27 µM
TGI (PC-3): 6.52 µM
growth GP (CAKI-1; CAKI-1, 10 μM, 48 h): -97.14%
TGI (CAKI-1): 2.46 µM
TGI (NCI-H322M): 3.88 µM
GI50 (NCI-H322M): 1.82 µM
CC50 (NCI-H322M): 8.29 µM
TGI (UACC-257 [4]): 3.27 µM
TGI (HT29 [5]): 2.90 µM
TGI (UO-31): 3.11 µM
MG_MID TGI [6]: 4.25 µM
GI50 (OVCAR-8): 1.49 µM
CC50 (OVCAR-8): 25.1 µM
GI50 (HS 578T): 2.09 µM
CC50 (HS 578T): > 100 µM
GI50 (MALME-3M): 1.32 µM
CC50 (MALME-3M): 5.64 µM
TGI (MALME-3M): 2.73 µM
MG_MID TGI (Breast cancer): 3.46 µM
growth GP (SK-MEL-5 [7]): -99.69%
TGI (SK-MEL-5 [7]): 2.21 µM
GI50 (SF-268): 1.61 µM
CC50 (SF-268): 7.92 µM
TGI (LOX IMVI): 2.49 µM
TGI (MDA-MB-435 [8]): 2.17 µM
GI50 [9]: 1.4 µM
GI50 (M14): 1.6 µM
CC50 (M14): 6.44 µM
TGI (M14): 3.21 µM
TGI (HCT-15): 2.18 µM
GI50 (HCT-15): 0.73 µM
CC50 (HCT-15): 5.32 µM
GI50 (SK-MEL-5 [10]): 1.03 µM
CC50 (SK-MEL-5 [10]): 4.74 µM
GI50 (Prostate Cancer): 1.62 µM
